Results on 15 compounds are retold here after patent US20240226115A1, “AXL INHIBITOR COMPOUNDS” (ARCUS BIOSCIENCES, INC., priority 2021, published 2024).

In test [1] the target is T1, recombinant human TYRO3 (Homo sapiens, UniProt Q06418).
T1 construct: purchased Invitrogen
T1 sequence (Q06418 41-890): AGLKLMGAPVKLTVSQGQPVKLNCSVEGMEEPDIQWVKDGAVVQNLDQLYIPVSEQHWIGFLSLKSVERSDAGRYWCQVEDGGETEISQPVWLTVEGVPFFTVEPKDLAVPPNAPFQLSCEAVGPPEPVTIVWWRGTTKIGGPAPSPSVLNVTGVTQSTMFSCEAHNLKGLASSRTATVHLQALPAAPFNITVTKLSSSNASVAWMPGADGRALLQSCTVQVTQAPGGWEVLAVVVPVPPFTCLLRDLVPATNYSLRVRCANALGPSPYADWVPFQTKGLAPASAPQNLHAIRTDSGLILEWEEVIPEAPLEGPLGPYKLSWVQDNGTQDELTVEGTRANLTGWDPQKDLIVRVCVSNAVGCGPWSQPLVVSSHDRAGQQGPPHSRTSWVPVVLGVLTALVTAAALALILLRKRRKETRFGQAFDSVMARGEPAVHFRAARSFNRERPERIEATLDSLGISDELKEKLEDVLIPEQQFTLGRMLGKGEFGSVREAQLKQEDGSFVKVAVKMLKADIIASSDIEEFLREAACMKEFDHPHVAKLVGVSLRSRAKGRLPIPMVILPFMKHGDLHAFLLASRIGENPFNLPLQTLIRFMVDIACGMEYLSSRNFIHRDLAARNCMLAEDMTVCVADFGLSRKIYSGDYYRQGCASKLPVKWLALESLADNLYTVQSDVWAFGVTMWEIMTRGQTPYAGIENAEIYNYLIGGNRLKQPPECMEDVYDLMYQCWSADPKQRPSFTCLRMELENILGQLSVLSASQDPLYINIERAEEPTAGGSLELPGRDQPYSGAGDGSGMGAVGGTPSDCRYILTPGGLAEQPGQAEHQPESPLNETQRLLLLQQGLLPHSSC
In words: HTRF KinEASE-TK biochemical potency, TYRO3. As to conditions: 1 nM TYRO3, 700 μM ATP. The method, then:
(§1) Purified recombinant human AXL, TYRO3 and MER proteins were purchased from Invitrogen™. 10 nM AXL, 2 nM TYRO3 or MER were incubated with varying concentrations of compounds in 50 mM HEPES, pH 7.4, 10 mM MgCl2, 0.01% BSA, 1 mM DTT and 2% DMSO in a total volume of 20 μl in a 384-well microplate (Corning™ #3640) at RT for 1 h. The AXL, TYRO3 and MER enzymatic reaction was initiated by transferring 10 μl of enzyme and compound mixture into 10 μl of 1.6 μM TK Substrate-biotin (HTRF® KinEASE-TK kit, Cisbio) and 1400 μM ATP pre-incubated in 50 mM HEPES, pH 7.4, 10 mM MgCl2, 0.01% BSA, 1 mM DTT in a 384-well microplate (Corning™ #3640) at RT, giving the final reaction conditions: 5 nM AXL, 1 nM TYRO3 or MER, 800 nM TK Substrate-biotin and 700 μM ATP in 50 mM HEPES, pH 7.4, 10 mM MgCl2, 0.01% BSA, 1 mM DTT and 1% DMSO with varying concentrations of compounds. Following 2 h incubation at RT, the AXL, TYRO3 and MER enzymatic reaction was stopped by transfer of 10 μl of reaction into 10 μl of detection mix (400 nM Streptavidin-XL665, 200-fold dilution TK Antibody-Cryptate and detection buffer, HTRF® KinEASE-TK kit, Cisbio) in a white 384-well microplate (Perkin Elmer, OptiPlate 384). After 1 h incubation at RT, the plate was put into a plate reader (Evision) to read at 665/620 nm (acceptor/donor) for HTRF. The value of the DMSO blank (MIN inhibition=100% activity) was used as a negative control. The positive control was established by adding 5 μl of enzyme and DMSO mixture into 10 μl of detection mix followed by addition of 5 μl of TK Substrate-biotin and ATP mixture (MAX inhibition=0% activity). To calculate the percent activity, Equation 1 was used. Ratio665/620 is the value at a given compound concentration: […]

Test [2] deals with T2, Axl (Homo sapiens, UniProt P30530).
T2 sequence (P30530 26-894): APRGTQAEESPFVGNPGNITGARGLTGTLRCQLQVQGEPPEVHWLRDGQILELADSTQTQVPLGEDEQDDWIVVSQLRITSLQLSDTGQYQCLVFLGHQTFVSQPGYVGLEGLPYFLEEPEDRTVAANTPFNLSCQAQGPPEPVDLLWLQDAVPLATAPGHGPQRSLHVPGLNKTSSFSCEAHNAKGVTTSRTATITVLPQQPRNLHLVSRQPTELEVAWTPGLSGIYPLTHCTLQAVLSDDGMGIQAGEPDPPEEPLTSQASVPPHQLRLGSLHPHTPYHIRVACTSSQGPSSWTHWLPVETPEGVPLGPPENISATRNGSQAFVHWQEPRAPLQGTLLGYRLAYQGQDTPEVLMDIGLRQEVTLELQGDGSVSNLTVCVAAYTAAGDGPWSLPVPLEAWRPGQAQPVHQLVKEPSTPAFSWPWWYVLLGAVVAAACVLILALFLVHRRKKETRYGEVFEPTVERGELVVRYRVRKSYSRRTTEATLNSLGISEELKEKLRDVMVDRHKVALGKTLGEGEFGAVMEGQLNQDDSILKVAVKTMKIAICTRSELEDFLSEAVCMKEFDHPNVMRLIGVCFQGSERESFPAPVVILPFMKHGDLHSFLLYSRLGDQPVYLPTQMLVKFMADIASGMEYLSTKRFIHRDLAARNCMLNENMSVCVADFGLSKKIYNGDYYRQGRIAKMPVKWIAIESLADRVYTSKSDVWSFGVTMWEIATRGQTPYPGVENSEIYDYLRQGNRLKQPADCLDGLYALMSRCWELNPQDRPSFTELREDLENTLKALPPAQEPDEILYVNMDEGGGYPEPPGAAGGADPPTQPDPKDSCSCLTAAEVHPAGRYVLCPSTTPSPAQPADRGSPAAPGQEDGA
In words: HTRF KinEASE-TK biochemical potency, AXL. Details: purchased Invitrogen. The following applies: 5 nM AXL, 700 μM ATP. The method, then: as §1

Turning to `O=C1NCCOc2cc(-c3n[nH]c4ncc(-c5ccc6c(c5)CCC(N5CCC5)CC6)cc34)ccc21` (stereo not drawn) [Example 52, 8-(5-(7-(Azetidin-1-yl)-6,7,8,9-tetrahydro-5H-benzo[7]annulen-2-yl)-1H-pyrazolo[3,4-b]pyridin-3-yl)-3,4-dihydrobenzo[f][1,4]oxazepin-5(2H)-one], the IC50 in test [1] and in test [2] was under 100 nM each time.

Take `CC1(N2CCCC2)CCc2ccc(-c3cnc4[nH]nc(-c5ccc6c(c5)OCCNC6=O)c4c3)cc2CC1` (stereo not drawn) [Example 22, 8-{5-[7-Methyl-7-(pyrrolidin-1-yl)-6,7,8,9-tetrahydro-5H-benzo[7]annulen-2-yl]-1H-pyrazolo[3,4-b]pyridin-3-yl}-2,3,4,5-tetrahydro-1,4-benzoxazepin-5-one]: the IC50 in test [1] and in test [2] was under 100 nM in each case.

In the case of `CC(C)C(=O)N1CCc2ccc(-c3cnc4[nH]nc(-c5ccc6c(c5)OCCNC6=O)c4c3)cc2CC1` [Example 16, 8-{5-[3-(2-Methylpropanoyl)-2,3,4,5-tetrahydro-1H-3-benzazepin-7-yl]-1H-pyrazolo[3,4-b]pyridin-3-yl}-2,3,4,5-tetrahydro-1,4-benzoxazepin-5-one], the IC50 in test [1] and in test [2] was under 100 nM in each case.

With `O=C1NCCOc2cc(-c3n[nH]c4ncc(-c5ccc6c(c5)CCC(N5CCC[C@H]5CO)CC6)cc34)ccc21` (stereo partly drawn) [Example 50, 8-(5-{7-[(2S)-2-(Hydroxymethyl)pyrrolidin-1-yl]-6,7,8,9-tetrahydro-5H-benzo[7]annulen-2-yl}-1H-pyrazolo[3,4-b]pyridin-3-yl)-2,3,4,5-tetrahydro-1,4-benzoxazepin-5-one], the IC50 in test [1] and in test [2] was under 100 nM each time.

For `CC1(O)CCc2cc(-c3n[nH]c4ncc(-c5ccc6c(c5)CC[C@@H](N5CCCC5)CC6)cc34)ccc21` (stereo partly drawn) [Example 30, 1-Methyl-5-{5-[(7S)-7-(pyrrolidin-1-yl)-6,7,8,9-tetrahydro-5H-benzo[7]annulen-2-yl]-1H-pyrazolo[3,4-b]pyridin-3-yl}-2,3-dihydro-1H-inden-1-ol], the concentration for half-maximal inhibition (IC50) in test [1] and in test [2] was under 100 nM throughout.

As for `O=C1NCCOc2cc(-c3n[nH]c4ncc(-c5ccc6c(c5)CC[C@H](N5CCCC5)CC6)cc34)ccc21` (single isomer, unassigned) [Example 56], the half-maximal inhibitory concentration (IC50) in test [1] and in test [2] was under 100 nM in each case.

Take `CC1(O)CCOc2cc(-c3n[nH]c4ncc(-c5ccc6c(c5)CC[C@@H](N5CCCC5)CC6)cc34)ccc21` (stereo partly drawn) [Example 31, 4-Methyl-7-{5-[(7S)-7-(pyrrolidin-1-yl)-6,7,8,9-tetrahydro-5H-benzo[7]annulen-2-yl]-1H-pyrazolo[3,4-b]pyridin-3-yl}-3,4-dihydro-2H-1-benzopyran-4-ol]: the IC50 in test [1] and in test [2] was under 100 nM each time.

Take `Cc1cc2c(cc1-c1cnc3[nH]nc(-c4ccc5c(c4)OCCNC5=O)c3c1)CCC(N1CCC[C@H]1C)CC2` (stereo partly drawn) [Example 64, 8-(5-{3-Methyl-7-[(2R)-2-methylpyrrolidin-1-yl]-6,7,8,9-tetrahydro-5H-benzo[7]annulen-2-yl}-1H-pyrazolo[3,4-b]pyridin-3-yl)-2,3,4,5-tetrahydro-1,4-benzoxazepin-5-one]: the IC50 in test [1] and in test [2] was under 100 nM each time.

As for `O=C1NCCOc2cc(-c3n[nH]c4ncc(-c5ccc6c(c5)CCN(C5CCCC5)C6)cc34)ccc21` [Example 9, 8-(5-(2-Cyclopentyl-1,2,3,4-tetrahydroisoquinolin-6-yl)-1H-pyrazolo[3,4-b]pyridin-3-yl)-3,4-dihydrobenzo[f][1,4]oxazepin-5(2H)-one], the half-maximal inhibitory concentration (IC50) in test [1] and in test [2] was under 100 nM in each case.

On to `O=C1NCCOc2cc(-c3n[nH]c4ncc(-c5ccc6c(c5)CCC(N5CCCC5)C6)cc34)ccc21` (stereo not drawn) [Example 2, 8-{5-[6-(Pyrrolidin-1-yl)-5,6,7,8-tetrahydronaphthalen-2-yl]-1H-pyrazolo[3,4-b]pyridin-3-yl}-2,3,4,5-tetrahydro-1,4-benzoxazepin-5-one], for which the IC50 in test [1] and in test [2] was under 100 nM in each case.

For the compound `C[C@@H]1CCCN1C1CCc2ccc(-c3cnc4[nH]nc(-c5ccc6c(c5)OCCNC6=O)c4c3)cc2CC1` (stereo partly drawn) [Example 44, 8-(5-{7-[(2R)-2-Methylpyrrolidin-1-yl]-6,7,8,9-tetrahydro-5H-benzo[7]annulen-2-yl}-1H-pyrazolo[3,4-b]pyridin-3-yl)-2,3,4,5-tetrahydro-1,4-benzoxazepin-5-one], the IC50 in test [1] and in test [2] was under 100 nM each time.

Take `O=C1NCCOc2cc(-c3n[nH]c4ncc(-c5ccc6c(c5)CCC(N5CCC[C@@H]5CO)CC6)cc34)ccc21` (stereo partly drawn) [Example 49, 8-(5-{7-[(2R)-2-(Hydroxymethyl)pyrrolidin-1-yl]-6,7,8,9-tetrahydro-5H-benzo[7]annulen-2-yl}-1H-pyrazolo[3,4-b]pyridin-3-yl)-2,3,4,5-tetrahydro-1,4-benzoxazepin-5-one]: the half-maximal inhibitory concentration (IC50) in test [1] and in test [2] was under 100 nM in each case.

As to `O=C1NCCOc2cc(-c3n[nH]c4ncc(-c5ccc6c(c5)CNCC6)cc34)ccc21` [Example 55, 8-(5-(1,2,3,4-Tetrahydroisoquinolin-7-yl)-1H-pyrazolo[3,4-b]pyridin-3-yl)-3,4-dihydrobenzo[f][1,4]oxazepin-5(2H)-one], the IC50 in test [1] and in test [2] was under 100 nM each time.

As to `O=C1NCCOc2cc(-c3n[nH]c4ncc(-c5ccc6c(c5)CC[C@@H](N5CCCC5)CC6)cc34)ccc21` (single isomer, unassigned) [Example 57], the IC50 in test [1] and in test [2] was under 100 nM each time.

On to `CC1(C)COc2cc(-c3n[nH]c4ncc(-c5ccc6c(c5)CCC(N5CCCC5)CC6)cc34)ccc2C(=O)N1` (stereo not drawn) [Example 35, 3,3-Dimethyl-8-{5-[7-(pyrrolidin-1-yl)-6,7,8,9-tetrahydro-5H-benzo[7]annulen-2-yl]-1H-pyrazolo[3,4-b]pyridin-3-yl}-2,3,4,5-tetrahydro-1,4-benzoxazepin-5-one], for which the IC50 in test [1] and in test [2] was under 100 nM each time.
